# Experiments:
# Type in all cases: cell-based
# [1] = system: Salmonella typhimurium 1535; experiment: Ames mutagenicity assay, plate incorporation, TA1535
# Experimental: (§1) The mutagenicity assay was performed for the test compounds following the plate incorporation method with the histidine-requiring Salmonella typhimurium mutant TA97A, TA98, TA100, and TA1535 strains purchased by Molecular Toxicology Inc. (Boone, NC, USA; moltox.com). All strains (100 µL per plate of fresh overnight cultures) were checked with and without the addition of 0.5 mL of a 5% S9 exogenous metabolic activator (S9 mix). The lyophilized post-mitochondrial supernatant S9 mix (Aroclor 1254-induced, Sprague–Dawley male rat liver in 0.154 M KCl solution), commonly used for the activation of pro-mutagens in mutagenic metabolites (Molecular Toxicology, Inc., Boone, NC, USA), was stored at −80 °C before use. The concentration tested for all the samples were 5, 10, 20, 50, and 100 µL/plate from a stock solution of 500 nM. A fully grown culture of the appropriate tester strain (0.1 mL) was added to 2 mL molten top agar (0.6% agar, 0.6% NaCl, 0.5 mM L-histidine/biotin solution) at 46 °C, together with 0.1 mL of each sample solution at different concentrations, and 0.5 mL S9 mix for assays with metabolic activation. The ingredients were thoroughly mixed and poured onto minimal glucose agar plates (1.5% agar in 2% Vogel–Bonner medium E with 5% glucose solution). DMSO was used as negative a control (100 µL/plate). Positive controls were prepared as follows: 2-aminoanthracene (2 µg/plate) and 2-nitrofluorene (2 µg/plate) for TA 97A, TA98 and TA1535 with and without metabolic activator (S9 mix), respectively; 2-aminoanthracene (2 µg/plate) and sodium azide (2 µg/plate) for TA100, with and without metabolic activator (S9 mix), respectively. The plates were incubated at 37 °C for 72 h and then his+ revertants were checked and counted using a Colony Counter 560 Suntex (Antibioticos, Italy). A sample was considered mutagenic when the observed number of colonies was at least twofold over the spontaneous level of revertants. All determinations were made in triplicate. Statistical analysis: relative standard deviations were calculated using the statistical software STATISTICA 6.0 (StatSoft, Italia srl, Vigonza, Italy). […]
# (§2) Salmonella typhimurium TA97A Salmonella typhimurium TA98 Salmonella typhimurium TA100 Salmonella typhimurium 1535 […]
# (§3) average SD t/c average SD t/c average SD t/c average SD t/c average SD t/c average SD t/c average SD t/c average SD t/c […]
# (§4) *Significant values according to Ames computation (Maron & Ames, 1983); DMSO, C+: negative and positive controls respectively; SD: Standard Deviation; t/c: number of revertant colonies in treated plates/number of revertant colonies in […]
# [2] = system: Salmonella typhimurium TA100; experiment: Ames mutagenicity assay, plate incorporation, TA100
# Experimental: as §1, §2, §3, §4
# [3] = system: Salmonella typhimurium TA97A; experiment: Ames mutagenicity assay, plate incorporation, TA97A
# Experimental: as §1, §2, §3, §4
# [4] = system: Salmonella typhimurium TA98; experiment: Ames mutagenicity assay, plate incorporation, TA98
# Experimental: as §1, §2, §3, §4
# [5] = 1535, +S9, 5 µL/plate of 500 nM stock
# [6] = 1535, +S9, 10 µL/plate of 500 nM stock
# [7] = 1535, +S9, 20 µL/plate of 500 nM stock
# [8] = 1535, +S9, 50 µL/plate of 500 nM stock
# [9] = 1535, +S9, 100 µL/plate of 500 nM stock
# [10] = 1535, -S9, 5 µL/plate of 500 nM stock
# [11] = 1535, -S9, 10 µL/plate of 500 nM stock
# [12] = 1535, -S9, 20 µL/plate of 500 nM stock
# [13] = 1535, -S9, 50 µL/plate of 500 nM stock
# [14] = 1535, -S9, 100 µL/plate of 500 nM stock
# [15] = TA100, +S9, 5 µL/plate of 500 nM stock
# [16] = TA100, +S9, 10 µL/plate of 500 nM stock
# [17] = TA100, +S9, 20 µL/plate of 500 nM stock
# [18] = TA100, +S9, 50 µL/plate of 500 nM stock
# [19] = TA100, +S9, 100 µL/plate of 500 nM stock
# [20] = TA100, -S9, 5 µL/plate of 500 nM stock
# [21] = TA100, -S9, 10 µL/plate of 500 nM stock
# [22] = TA100, -S9, 20 µL/plate of 500 nM stock
# [23] = TA100, -S9, 50 µL/plate of 500 nM stock
# [24] = TA100, -S9, 100 µL/plate of 500 nM stock
# [25] = +S9, 5 µL/plate of 500 nM stock
# [26] = +S9, 10 µL/plate of 500 nM stock
# [27] = +S9, 20 µL/plate of 500 nM stock
# [28] = +S9, 50 µL/plate of 500 nM stock
# [29] = +S9, 100 µL/plate of 500 nM stock
# [30] = -S9, 5 µL/plate of 500 nM stock
# [31] = -S9, 10 µL/plate of 500 nM stock
# [32] = -S9, 20 µL/plate of 500 nM stock
# [33] = -S9, 50 µL/plate of 500 nM stock
# [34] = -S9, 100 µL/plate of 500 nM stock
# [35] = TA98, +S9, 5 µL/plate of 500 nM stock
# [36] = TA98, +S9, 10 µL/plate of 500 nM stock
# [37] = TA98, +S9, 20 µL/plate of 500 nM stock
# [38] = TA98, +S9, 50 µL/plate of 500 nM stock
# [39] = TA98, +S9, 100 µL/plate of 500 nM stock
# [40] = TA98, -S9, 5 µL/plate of 500 nM stock
# [41] = TA98, -S9, 10 µL/plate of 500 nM stock
# [42] = TA98, -S9, 20 µL/plate of 500 nM stock
# [43] = TA98, -S9, 50 µL/plate of 500 nM stock
# [44] = TA98, -S9, 100 µL/plate of 500 nM stock
smiles,measurement,setting,value
Cc1cc(=O)oc2c1cc(-c1ccc(N)cc1)c1occ(C)c12 [pANDMA],"revertant colonies, average",[1]; [5],14.5
same,t/c (revertant colonies treated/untreated plates),[1]; [5],1.4
same,"revertant colonies, average",[1]; [6],17.0
same,t/c (revertant colonies treated/untreated plates),[1]; [6],1.6
same,"revertant colonies, average",[1]; [7],12.0
same,t/c (revertant colonies treated/untreated plates),[1]; [7],1.1
same,"revertant colonies, average",[1]; [8],13.0
same,t/c (revertant colonies treated/untreated plates),[1]; [8],1.2
same,"revertant colonies, average",[1]; [9],14.0
same,t/c (revertant colonies treated/untreated plates),[1]; [9],1.3
same,"revertant colonies, average",[1]; [10],17.5
same,t/c (revertant colonies treated/untreated plates),[1]; [10],1.6
same,"revertant colonies, average",[1]; [11],13.0
same,t/c (revertant colonies treated/untreated plates),[1]; [11],1.2
same,"revertant colonies, average",[1]; [12],5.5
same,t/c (revertant colonies treated/untreated plates),[1]; [12],0.5
same,"revertant colonies, average",[1]; [13],9.5
same,t/c (revertant colonies treated/untreated plates),[1]; [13],0.9
same,"revertant colonies, average",[1]; [14],10.0
same,t/c (revertant colonies treated/untreated plates),[1]; [14],0.9
same,"revertant colonies, average",[2]; [15],175.0
same,t/c (revertant colonies treated/untreated plates),[2]; [15],1.0
same,"revertant colonies, average",[2]; [16],181.5
same,t/c (revertant colonies treated/untreated plates),[2]; [16],1.1
same,"revertant colonies, average",[2]; [17],224.0
same,t/c (revertant colonies treated/untreated plates),[2]; [17],1.3
same,"revertant colonies, average",[2]; [18],232.0
same,t/c (revertant colonies treated/untreated plates),[2]; [18],1.4
same,"revertant colonies, average",[2]; [19],235.5
same,t/c (revertant colonies treated/untreated plates),[2]; [19],1.4
same,"revertant colonies, average",[2]; [20],192.0
same,t/c (revertant colonies treated/untreated plates),[2]; [20],1.0
same,"revertant colonies, average",[2]; [21],189.0
same,t/c (revertant colonies treated/untreated plates),[2]; [21],1.0
same,"revertant colonies, average",[2]; [22],204.5
same,t/c (revertant colonies treated/untreated plates),[2]; [22],1.0
same,"revertant colonies, average",[2]; [23],189.0
same,t/c (revertant colonies treated/untreated plates),[2]; [23],1.0
same,"revertant colonies, average",[2]; [24],165.5
same,t/c (revertant colonies treated/untreated plates),[2]; [24],0.8
same,"revertant colonies, average",[3]; [25],88.5
same,t/c (revertant colonies treated/untreated plates),[3]; [25],0.8
same,"revertant colonies, average",[3]; [26],100.5
same,t/c (revertant colonies treated/untreated plates),[3]; [26],0.9
same,"revertant colonies, average",[3]; [27],92.5
same,t/c (revertant colonies treated/untreated plates),[3]; [27],0.8
same,"revertant colonies, average",[3]; [28],104.5
same,t/c (revertant colonies treated/untreated plates),[3]; [28],1.0
same,"revertant colonies, average",[3]; [29],101.0
same,t/c (revertant colonies treated/untreated plates),[3]; [29],0.9
same,"revertant colonies, average",[3]; [30],82.5
same,t/c (revertant colonies treated/untreated plates),[3]; [30],1.1
same,"revertant colonies, average",[3]; [31],80.5
same,t/c (revertant colonies treated/untreated plates),[3]; [31],1.0
same,"revertant colonies, average",[3]; [32],82.0
same,t/c (revertant colonies treated/untreated plates),[3]; [32],1.1
same,"revertant colonies, average",[3]; [33],86.5
same,t/c (revertant colonies treated/untreated plates),[3]; [33],1.1
same,"revertant colonies, average",[3]; [34],86.0
same,t/c (revertant colonies treated/untreated plates),[3]; [34],1.1
same,"revertant colonies, average",[4]; [35],50.0
same,t/c (revertant colonies treated/untreated plates),[4]; [35],1.1
same,"revertant colonies, average",[4]; [36],48.0
same,t/c (revertant colonies treated/untreated plates),[4]; [36],1.0
same,"revertant colonies, average",[4]; [37],49.5
same,t/c (revertant colonies treated/untreated plates),[4]; [37],1.1
same,"revertant colonies, average",[4]; [38],51.0
same,t/c (revertant colonies treated/untreated plates),[4]; [38],1.1
same,"revertant colonies, average",[4]; [39],45.5
same,t/c (revertant colonies treated/untreated plates),[4]; [39],1.0
same,"revertant colonies, average",[4]; [40],40.5
same,t/c (revertant colonies treated/untreated plates),[4]; [40],1.0
same,"revertant colonies, average",[4]; [41],40.5
same,t/c (revertant colonies treated/untreated plates),[4]; [41],1.0
same,"revertant colonies, average",[4]; [42],43.5
same,t/c (revertant colonies treated/untreated plates),[4]; [42],1.1
same,"revertant colonies, average",[4]; [43],41.0
same,t/c (revertant colonies treated/untreated plates),[4]; [43],1.1
same,"revertant colonies, average",[4]; [44],39.0
same,t/c (revertant colonies treated/untreated plates),[4]; [44],1.0
